Results reported in the supplement of paper PMC10307832.

Assays:
Assay in all cases: relative viability (nuclei count vs DMSO), 5 days (fraction); higher = more cells survive
[1] = compound: C1=CC=C(C(=C1)C2=CC=C(C=C2)C3=CSC4=C3C(=C(C(=O)N4)C#N)O)O + O=C(c1cc(Cc2n[nH]c(=O)c3ccccc23)ccc1F)N1CCN(C(=O)C2CC2)CC1 [Olaparib] (partner 8 µM)
Summary of the method: (§1)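 Cells from lung cancer lines were seeded into 1536-well plates and, one day later, dosed by pin tool. Treatments were either a single drug or a fixed dose of an anchor drug with five library-drug doses (not always all listed) in √10 steps. After 5 days, nuclei were stained in a one-step fixation (final 0.05% Triton X-100, 1% formaldehyde, 1 ug/ml Hoechst) and counted on 4× images, and relative viability is the treated-to-vehicle nuclei ratio, as the median of duplicate plates.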

[2] = compound: C1=CC=C(C(=C1)C2=CC=C(C=C2)C3=CSC4=C3C(=C(C(=O)N4)C#N)O)O + Cc1nc(NC(=O)N2CCC[C@H]2C(N)=O)sc1-c1ccnc(C(C)(C)C(F)(F)F)c1 [Alpelisib] (partner 2 µM)
Summary of the method: as §1

TGX 221 + Trametinib = compound: CC1=CN2C(=O)C=C(N=C2C(=C1)C(C)NC3=CC=CC=C3)N4CCOCC4 [TGX 221] + CC(=O)Nc1cccc(-n2c(=O)n(C3CC3)c(=O)c3c(Nc4ccc(I)cc4F)n(C)c(=O)c(C)c32)c1 [Trametinib] (partner 0.02 µM)
Summary of the method: as §1

TGX 221 + Lapatinib = compound: CC1=CN2C(=O)C=C(N=C2C(=C1)C(C)NC3=CC=CC=C3)N4CCOCC4 [TGX 221] + CS(=O)(=O)CCNCc1ccc(-c2ccc3ncnc(Nc4ccc(OCc5cccc(F)c5)c(Cl)c4)c3c2)o1 [Lapatinib] (partner 2 µM)
Summary of the method: as §1

Cell Line	relative viability ([1]; first compound 0.08 µM)	relative viability ([1]; first compound 0.253 µM)	relative viability ([1]; first compound 0.8 µM)	relative viability ([1]; first compound 2.53 µM)	relative viability ([1]; first compound 8 µM)	relative viability ([2]; first compound 0.253 µM)	relative viability ([2]; first compound 0.8 µM)	relative viability ([2]; first compound 2.53 µM)	relative viability ([2]; first compound 8 µM)	relative viability (TGX 221 + Trametinib; first compound 0.08 µM)	relative viability (TGX 221 + Trametinib; first compound 0.253 µM)	relative viability (TGX 221 + Trametinib; first compound 0.8 µM)	relative viability (TGX 221 + Trametinib; first compound 2.53 µM)	relative viability (TGX 221 + Trametinib; first compound 8 µM)	relative viability (TGX 221 + Lapatinib; first compound 0.08 µM)	relative viability (TGX 221 + Lapatinib; first compound 0.253 µM)	relative viability (TGX 221 + Lapatinib; first compound 0.8 µM)	relative viability (TGX 221 + Lapatinib; first compound 8 µM)	relative viability ([2]; first compound 0.08 µM)	relative viability (TGX 221 + Lapatinib; first compound 2.53 µM)
EPLC-272H	0.665	0.753	0.856	0.917	0.509	1.06	0.978	0.977	0.76	0.246	0.269	0.271	0.242	0.254	1.04	0.881	0.822	0.962	–	–
H3255	0.612	0.67	0.524	0.624	0.574	0.778	0.68	0.687	0.563	0.583	0.537	0.538	0.576	0.529	0.301	0.225	0.24	0.211	0.799	0.277
NCI-H650	0.42	0.375	0.402	0.495	0.432	1.36	0.961	1.11	1.22	0.932	0.894	0.974	0.908	0.861	1	0.98	0.706	0.76	1.1	0.908
NCI-H1944	0.465	0.433	0.386	0.464	0.373	0.952	0.888	0.856	0.864	–	0.367	0.327	0.401	0.32	0.705	0.784	0.777	0.714	0.806	0.836
NCI-H23	0.282	0.298	0.37	0.336	0.273	0.695	0.833	0.719	0.421	0.279	0.329	0.338	0.403	0.328	1.13	0.95	1.1	0.975	0.652	1.12
NCI-H358	0.4	0.654	0.531	0.562	0.587	0.862	0.788	0.973	0.763	0.13	0.127	0.153	0.132	0.132	0.477	0.458	0.472	0.442	0.708	0.42
HCC-366	–	0.384	0.369	0.41	0.302	0.491	0.431	0.441	0.367	0.288	0.325	0.311	0.235	0.239	1.02	1	0.875	1.04	0.506	1.04
NCI-H2405	0.896	–	0.928	0.825	0.878	0.834	0.867	0.715	0.715	0.529	0.571	0.461	0.465	0.436	0.836	1.02	0.971	0.901	0.761	1.02
NCI-H322M	0.69	0.742	0.863	0.519	0.748	0.901	0.958	0.835	0.703	0.47	0.488	0.508	0.504	0.5	0.567	0.6	0.547	0.67	0.814	0.562
